Molecular target: SUV420H1 enzyme (Homo sapiens, UniProt Q4FZB7)
Assay: TR-FRET SAH SUV420H1 enzyme inhibition assay
Format: biochemical
Details: Histone Peptide H4(8-30)me1 and SAM, overnight at room temp, TR-FRET detection of SAH, read-out: TR-FRET SAH_SUV420H1 IC50
Procedure, shortened: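 SUV420H1 (90 nM) preincubated 30 min with compound (3-fold dilutions, 50 to 0.00075 μM), then H4(8-30)me1 peptide 5 nM and SAM 4 nM added, overnight at room temp. SAH product detected by TR-FRET with Tb anti-SAH antibody and Oregon Green-SAH in RIPA buffer, 4 h; IC50 from Hill fit, asymptotes fixed 0-100%.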

Sequence of SUV420H1 enzyme (Q4FZB7 whole entry): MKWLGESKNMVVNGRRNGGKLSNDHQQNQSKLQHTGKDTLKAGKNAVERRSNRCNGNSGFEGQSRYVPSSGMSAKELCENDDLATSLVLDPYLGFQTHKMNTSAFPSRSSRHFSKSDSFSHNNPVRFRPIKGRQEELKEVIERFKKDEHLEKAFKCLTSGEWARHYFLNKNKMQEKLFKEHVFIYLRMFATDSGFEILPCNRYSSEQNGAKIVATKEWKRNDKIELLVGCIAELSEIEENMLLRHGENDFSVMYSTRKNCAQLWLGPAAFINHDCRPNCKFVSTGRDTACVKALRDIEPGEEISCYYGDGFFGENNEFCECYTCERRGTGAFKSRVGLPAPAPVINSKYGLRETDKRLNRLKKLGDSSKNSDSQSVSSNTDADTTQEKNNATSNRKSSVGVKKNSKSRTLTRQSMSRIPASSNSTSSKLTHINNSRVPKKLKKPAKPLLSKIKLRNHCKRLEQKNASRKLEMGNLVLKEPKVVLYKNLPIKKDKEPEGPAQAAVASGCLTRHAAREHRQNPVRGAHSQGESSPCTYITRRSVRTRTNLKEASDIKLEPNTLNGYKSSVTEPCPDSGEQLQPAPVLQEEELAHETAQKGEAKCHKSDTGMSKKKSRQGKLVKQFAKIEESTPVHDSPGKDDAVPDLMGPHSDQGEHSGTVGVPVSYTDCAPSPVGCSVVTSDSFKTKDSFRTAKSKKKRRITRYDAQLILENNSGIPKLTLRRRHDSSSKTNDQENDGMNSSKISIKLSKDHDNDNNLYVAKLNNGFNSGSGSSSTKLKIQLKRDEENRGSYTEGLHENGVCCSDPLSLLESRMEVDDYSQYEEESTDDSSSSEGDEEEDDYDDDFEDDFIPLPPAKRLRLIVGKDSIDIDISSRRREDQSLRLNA

Going from `Nc1ncnc2c1ncn2Cc1cc(Cl)cc2cc(CNC(=O)c3cnoc3)[nH]c12` [Example 141, N-({7-[(6-amino-9H-purin-9-yl)methyl]-5-chloro-1H-indol-2-yl}methyl)-1,2-oxazole-4-carboxamide] to `Nc1ncnc2c1ncn2Cc1cc(Cl)cc2cc(CNC(=O)c3cn[nH]c3)[nH]c12` [Example 143, N-({7-[(6-amino-9H-purin-9-yl)methyl]-5-chloro-1H-indol-2-yl}methyl)-1H-pyrazole-4-carboxamide], the IC50 rises from 0.783 µM to 24 µM (31-fold). The first is the more potent here.

`Nc1ncnc2c1ncn2Cc1cc(Cl)cc2cc(CNC(=O)c3ccn[nH]3)[nH]c12` [Example 142, N-({7-[(6-amino-9H-purin-9-yl)methyl]-5-chloro-1H-indol-2-yl}methyl)-1H-pyrazole-5-carboxamide] and `Nc1ncnc2c1ncn2Cc1cc(Cl)cc2cc(CNC(=O)c3ccc[nH]3)[nH]c12` [Example 146, N-({7-[(6-amino-9H-purin-9-yl)methyl]-5-chloro-1H-indol-2-yl}methyl)-1H-pyrrole-2-carboxamide] are within 1.5-fold of each other in IC50: 9.48 µM for the first, 14.2 µM for the second.

Going from `Nc1ncnc2c1ncn2Cc1cc(Cl)cc2cc(CNC(=O)c3cccs3)[nH]c12` [Example 144, N-({7-[(6-amino-9H-purin-9-yl)methyl]-5-chloro-1H-indol-2-yl}methyl)thiophene-2-carboxamide] to `Nc1ncnc2c1ncn2Cc1cc(Cl)cc2cc(CNC(=O)c3ccsc3)[nH]c12` [Example 145, N-({7-[(6-amino-9H-purin-9-yl)methyl]-5-chloro-1H-indol-2-yl}methyl)thiophene-3-carboxamide], the IC50 falls from 4.6 µM to 2.4 µM (1.9-fold).

First: Cc1scnc1C(=O)NCc1cc2cc(Cl)cc(Cn3cnc4c(N)ncnc43)c2[nH]1 [Example 147, N-({7-[(6-amino-9H-purin-9-yl)methyl]-5-chloro-1H-indol-2-yl}methyl)-5-methyl-1,3-thiazole-4-carboxamide]
Second: Cc1ncsc1C(=O)NCc1cc2cc(Cl)cc(Cn3cnc4c(N)ncnc43)c2[nH]1 [Example 148, N-({7-[(6-amino-9H-purin-9-yl)methyl]-5-chloro-1H-indol-2-yl}methyl)-4-methyl-1,3-thiazole-5-carboxamide]
The IC50 of the first is 5.6-fold higher: 5.79 µM for the first, 1.03 µM for the second.

Going from `Cc1oncc1C(=O)NCc1cc2cc(Cl)cc(Cn3cnc4c(N)ncnc43)c2[nH]1` [Example 149, N-({7-[(6-amino-9H-purin-9-yl)methyl]-5-chloro-1H-indol-2-yl}methyl)-5-methyl-1,2-oxazole-4-carboxamide] to `Cc1nocc1C(=O)NCc1cc2cc(Cl)cc(Cn3cnc4c(N)ncnc43)c2[nH]1` [Example 150, N-({7-[(6-amino-9H-purin-9-yl)methyl]-5-chloro-1H-indol-2-yl}methyl)-3-methyl-1,2-oxazole-4-carboxamide], the IC50 falls from 2.04 µM to 0.382 µM (5.3-fold).

Going from `Cn1ccc(C(=O)NCc2cc3cc(Cl)cc(Cn4cnc5c(N)ncnc54)c3[nH]2)n1` [Example 151, N-({7-[(6-amino-9H-purin-9-yl)methyl]-5-chloro-1H-indol-2-yl}methyl)-1-methyl-1H-pyrazole-3-carboxamide] to `Cn1cncc1C(=O)NCc1cc2cc(Cl)cc(Cn3cnc4c(N)ncnc43)c2[nH]1` [Example 153, N-({7-[(6-amino-9H-purin-9-yl)methyl]-5-chloro-1H-indol-2-yl}methyl)-1-methyl-1H-imidazole-5-carboxamide], the IC50 falls from 6.75 µM to 4.4 µM (1.5-fold).

Compared with `Cn1nccc1C(=O)NCc1cc2cc(Cl)cc(Cn3cnc4c(N)ncnc43)c2[nH]1` [Example 152, N-({7-[(6-amino-9H-purin-9-yl)methyl]-5-chloro-1H-indol-2-yl}methyl)-1-methyl-1H-pyrazole-5-carboxamide], `Cn1cccc1C(=O)NCc1cc2cc(Cl)cc(Cn3cnc4c(N)ncnc43)c2[nH]1` [Example 160, N-({7-[(6-amino-9H-purin-9-yl)methyl]-5-chloro-1H-indol-2-yl}methyl)-1-methyl-1H-pyrrole-2-carboxamide] is 16-fold higher in IC50: 1.08 µM for the first, 16.8 µM for the second.

Going from `Cn1ccnc1C(=O)NCc1cc2cc(Cl)cc(Cn3cnc4c(N)ncnc43)c2[nH]1` [Example 154, N-({7-[(6-amino-9H-purin-9-yl)methyl]-5-chloro-1H-indol-2-yl}methyl)-1-methyl-1H-imidazole-2-carboxamide] to `Cc1sccc1C(=O)NCc1cc2cc(Cl)cc(Cn3cnc4c(N)ncnc43)c2[nH]1` [Example 156, N-({7-[(6-amino-9H-purin-9-yl)methyl]-5-chloro-1H-indol-2-yl}methyl)-2-methylthiophene-3-carboxamide], the IC50 rises from 4.77 µM to 7.92 µM (1.7-fold).

Compared with `Cc1noc(N)c1C(=O)NCc1cc2cc(Cl)cc(Cn3cnc4c(N)ncnc43)c2[nH]1` [Example 155, 5-amino-N-({7-[(6-amino-9H-purin-9-yl)methyl]-5-chloro-1H-indol-2-yl}methyl)-3-methyl-1,2-oxazole-4-carboxamide], `Cc1noc(C)c1C(=O)NCc1cc2cc(Cl)cc(Cn3cnc4c(N)ncnc43)c2[nH]1` [Example 162, N-({7-[(6-amino-9H-purin-9-yl)methyl]-5-chloro-1H-indol-2-yl}methyl)-3,5-dimethyl-1,2-oxazole-4-carboxamide] is 15-fold lower in IC50: 3.59 µM for the first, 0.237 µM for the second. The second is the more potent here.

Compared with `Cc1ccsc1C(=O)NCc1cc2cc(Cl)cc(Cn3cnc4c(N)ncnc43)c2[nH]1` [Example 157, N-({7-[(6-amino-9H-purin-9-yl)methyl]-5-chloro-1H-indol-2-yl}methyl)-3-methylthiophene-2-carboxamide], `COc1ccsc1C(=O)NCc1cc2cc(Cl)cc(Cn3cnc4c(N)ncnc43)c2[nH]1` [Example 159, N-({7-[(6-amino-9H-purin-9-yl)methyl]-5-chloro-1H-indol-2-yl}methyl)-3-methoxythiophene-2-carboxamide] is higher in IC50: 2.06 µM for the first, greater than 50 µM for the second.

Going from `COc1cscc1C(=O)NCc1cc2cc(Cl)cc(Cn3cnc4c(N)ncnc43)c2[nH]1` [Example 158, N-({7-[(6-amino-9H-purin-9-yl)methyl]-5-chloro-1H-indol-2-yl}methyl)-4-methoxythiophene-3-carboxamide] to `Cc1nc(C)c(C(=O)NCc2cc3cc(Cl)cc(Cn4cnc5c(N)ncnc54)c3[nH]2)s1` [Example 161, N-({7-[(6-amino-9H-purin-9-yl)methyl]-5-chloro-1H-indol-2-yl}methyl)-2,4-dimethyl-1,3-thiazole-5-carboxamide], the IC50 falls from 4.75 µM to 0.856 µM (5.5-fold).

Going from `Cc1noc(C)c1C(=O)NCc1cc2cc(C3=CCCNC3)cc(Cn3cnc4c(N)ncnc43)c2[nH]1` [Example 163, N-({7-[(6-amino-9H-purin-9-yl)methyl]-5-(1,2,5,6-tetrahydropyridin-3-yl)-1H-indol-2-yl}methyl)-3,5-dimethyl-1,2-oxazole-4-carboxamide] to `Cc1noc(C)c1C(=O)NCc1cc2cc(-c3ccc(F)cc3)cc(Cn3cnc4c(N)ncnc43)c2[nH]1` [Example 165, N-({7-[(6-amino-9H-purin-9-yl)methyl]-5-(4-fluorophenyl)-1H-indol-2-yl}methyl)-3,5-dimethyl-1,2-oxazole-4-carboxamide], the IC50 rises from 0.127 µM to 0.233 µM (1.8-fold). The first is the more potent here.

`Cc1noc(C)c1C(=O)NCc1cc2cc(-c3ccccc3)cc(Cn3cnc4c(N)ncnc43)c2[nH]1` [Example 164, N-({7-[(6-amino-9H-purin-9-yl)methyl]-5-phenyl-1H-indol-2-yl}methyl)-3,5-dimethyl-1,2-oxazole-4-carboxamide] showed an IC50 of 0.139 µM.
